Values belong to the molecule of their own block, whether it stands above or below them. Non-standard residues stand in square brackets, D forms with d. Residues, ends and D or L forms follow the SMILES beside them. No end group written: not given here.
Legend:
[1] = system: MBNL1 binding to the CUG repeats; conditions: in vitro; cited from earlier work
FVB wild strain mice = experiment: Toxicity of p10 in mammals, intramuscular injection; assay type: in vivo
Description: In order to study the possible toxic effect of p10 in mammals and establishing the maximum tolerable dose for subsequent assays, the peptide was administered to mice from the FVB wild strain. Due to the low absorption of peptides by the intestinal walls, it was decided to perform intramuscular injections in the anterior tibial muscle of animals 4-5 weeks of age, using four different doses (0.5 μg, 1 μg, 10 μg and 100 μg), with a total of 6 mice per dose (3 females and 3 males). 4 weeks after the injection, the animals were sacrificed and a visual autopsy was performed, jointly with a histomorphological study of the muscle and a blood test (FIG. 31). As a control, animals injected with the same quantity of DMSO (0.2% for the 0.5-μg and 1-μg doses, and 2% for the 10-μg and 100-μg doses) were used.
However, the blood tests did show differences between the treated animals and the control. As a marker of renal activity, we measured the quantity of […], urea and creatinine in the blood. The creatine phosphokinase (CPK) enzyme was used as a marker of damage to the skeletal muscle and the heart, and alkaline phosphatase (AP), gamma-glutamyl transpeptidase (GGT) and glutamate pyruvate transaminase (GPT) were used as markers of hepatic damage. […] This could be due to the toxicity of DMSO or to the injection itself. […] Urea is the final result of protein metabolism. It is formed in the liver and eliminated in the urine. If the kidney is not functioning correctly, urea accumulates in the blood. GPT is an enzyme that is present in the liver at a high concentration and, to a lower extent, in the kidneys, the heart and the muscles. When there is an injury in these organs, the enzyme is released into the blood and appears high in tests. Moreover, it is worth noting that two of the mice treated with the 100-μg dose died approximately 11 days after the injection (p/i), which confirms the toxicity of p10 when it exceeds a threshold value. It was possible to extract blood from one of these two animals just before it died.

[2] = system: 103Y-Gal4/+;UAS-CTG(480)/+ flies; experiment: Lethality phenotype in pupae caused by expression of 480 CTG under 103Y-Gal4 (females born); assay type: in vivo, Drosophila; conditions: administered to larvae in the food; compared with p10
Description: The 120 vials that make up the chemical library were individually assayed on the lethality phenotype in pupae caused by the expression of 480 CTG under the control of 103Y-Gal4 at a concentration of 80 μM. […] Thus, for positions O1, O2, O3, O4, O5 and O6 of the hexapeptide, a total of six, three, six, four, two and seven active amino acids were obtained, respectively (FIG. 2A). In order to perform the deconvolution, 10 of these 28 amino acids were selected, on the basis of their degree of activity in the biological assay (FIG. 2A). Finally, of the possible combinations, 16 sequences were selected to perform the synthesis of the defined hexapeptides (FIG. 2B). The selection of these 16 peptides was based on redundancy criteria between the physical and chemical properties of active amino acids in similar positions.
At 250 μM, the activity of the peptide decreased, possibly due to a toxic effect of the peptide at higher concentrations.
In order to determine the contribution of each of the p10 residues to their activity on CTG(480), an alanine scanning experiment was performed. These experiments are based on substituting every amino acid of the peptide with alanine and keeping the rest. Alanine is a small amino acid and, in general, not very active; this is why it is used for this type of studies. Since each alanine substitution examines the contribution of an individual amino acid, this experiment makes it possible, on the one hand, to evaluate whether p10 is susceptible to optimisation (in the event that a substitution increases the efficacy of the molecule), or to determine which amino acids are important for its function (in the event that a substitution decreases the activity thereof). The sequence of p10 allows for 5 substitutions; for this reason, 5 new hexapeptides were synthesised which were assayed in relation to the lethality phenotype in 103Y-Gal4; UAS-CTG(480)/+ flies and commercial food.

FAM-(CUG)23 RNA = experiment: Fluorescence gel retardation assay with FAM-(CUG)23; assay type: binding; conditions: peptide 2.5 mM, RNA 60 nM
Description: The changes on the RNA caused by p10 in the FP assay are small, probably due to the low molecular weight of the molecule (less than 900 Da). For this reason, it was decided to supplement the study with gel retardation experiments. These assays are based on the differences in electrophoretic mobility between stable protein-nucleic acid complexes and their components separately. Since the FAM-(CUG)23 RNA was available, it was decided to prepare a fluorescence gel retardation assay. After determining the optimal quantity of RNA for detection (60 nM; FIG. 21A), the binding between the latter and MblZF was studied. Said binding caused both a decrease in the intensity of the band corresponding to the free RNA in the gel and the appearance of a signal in the interior of the gel wells (bound RNA).
In order to determine whether p10 could bind to CUG RNA molecules, it was decided to perform a similar gel retardation experiment between the peptide and FAM-(CUG)23. p10 bound to the RNA, with part of the complex being retained in the well, as described for MblZF. […] This affinity decreased upon decreasing the size of the repeats (FAM-(CUG)4, FIG. 24C). […] This could be due either to a synergic effect between the protein and the peptide or to an additive effect if both should bind to different RNA sites.
In order to study the specificity of the binding observed between p10 and the CUG repeats, two experiments were performed. In the first place, the five hexapeptides generated during the alanine scanning were assayed. […] In the second place, we studied the effect of p10 on other RNA and DNA sequences, both double-stranded and single-stranded, fluorescently labelled with carboxyfluorescein (FAM) (FIG. 25C).

[3] = system: 103Y-Gal4/+;UAS-CTG(480)/+ flies; experiment: Lethality phenotype in pupae caused by expression of 480 CTG under 103Y-Gal4 (females born); assay type: in vivo, Drosophila; design: key: —: - indicates that no females were born, in neither the control tubes and the treated tubes; conditions: females born vs DMSO control
2-AP-(CUG)23 RNA = experiment: 2-aminopurine fluorescence assay (hairpin opening); assay type: biochemical; conditions: for destructuration of CUG23 probe, comparative 2-aminopurine assay: 100 μM
Description: Measurements of the fluorescence emitted (Y-axis), measured as relative fluorescence units (RFU), by 2-aminopurine in a (CUG)23 RNA (1 μM) in the presence of MblZF (0.1 μM, 1 μM, 2 μM and 5 μM) (A) or p10 (0.1 μM, 1 μM, 2 μM, 5 μM and 100 μM) (B), relative to the fluorescence emitted by the free RNA. p10 caused a 2.9-increase in the fluorescence of 2-AP at 100 μM, which indicates a change towards single-stranded. This effect was not observed when incubating the RNA with DMSO, or with the alanine scanning peptides with sequences: ppyawa and payawe (C).
In order to confirm whether said changes cause a loss of the hairpin loop structure, an experiment was performed using an RNA composed of 23 CUG repeats, wherein a guanine had been substituted with its analogue 2-aminopurine (2-AP-(CUG)23). When 2-AP is in a single-stranded environment, it emits fluorescence at 375 nm. […] However, upon increasing the concentration of p10 to 100 μM (RNA:peptide 1:100), the 2AP-(CUG)23 RNA underwent a conformational change, from double-stranded to single-stranded, with a 2.9-fold increase in the fluorescence emission of the molecule (FIG. 28B). In order to confirm the specificity of this effect, the same experiment was performed, incubating the alanine scanning peptides (payawe and ppyawa) with the 2-AP-(CUG)23 RNA at the same concentration as p10 (100 μM).
As may be observed in FIG. 29, in this example we use the 2-aminopurine assay in order to assay 4 peptides (p11, p5, p12 and p15) in addition to p10, obtained from the deconvolution of the combinatorial peptide library explained in this invention. […] The concentration used in all cases is 100 μM.

CUG60 RNA = experiment: Circular dichroism of CUG60 RNA; assay type: binding; conditions: RNA 1 μM, p10 0.1-20 μM, MblZF 1 and 1.5 μM, ppyawa 0.5 and 1 μM, payawe 1 μM
Description: However, this effect was not reverted when the RNA was incubated jointly with MblZF and p10, regardless of the order of addition (C).
In order to study possible changes in the secondary structure of RNA induced by p10, in the first place we performed a circular dichroism (CD) experiment, using an RNA with unlabelled CUG repeats (CUG60). The circular dichroism of nucleic acids is caused by the stacking of the bases that make up the sequence thereof. Consequently, when a molecule binds to RNA, affecting the structure thereof, a change is detected in its CD spectrum. […] When we incubated the RNA with increasing concentrations of the peptide of SEQ ID NO: 10 (0.1 μM, 0.5 μM, 1 μM, 10 μM and 20 μM), a similar effect was observed (FIG. 27B). During the readings, the RNA was kept in the cuvette inside the dichrograph at 10° C. Throughout the 3 hours of each experiment, it was possible for the RNA to have been degraded; this would explain the decrease in the intensity of the signal observed. In order to rule out this possibility, the CD spectrum of CUG60 RNA was measured at times 0 and 3 h, having kept the CUG60 RNA at 10° C. at all times.

[4] = 100-μg dose, one mouse just before it died

Molecule: NC[C@@H]1O[C@H](O[C@H]2[C@@H](O)[C@H](O[C@@H]3[C@@H](O)[C@H](N)C[C@H](N)[C@H]3O[C@H]3O[C@H](CN)[C@@H](O)[C@H](O)[C@H]3N)O[C@@H]2CO)[C@H](N)[C@@H](O)[C@@H]1O [neomycin B]
- binding of MBNL1 to the CUG repeats [1]: inhibited the binding of MBNL1

Molecule: C[C@@H](NC(=O)[C@@H](Cc1ccc(O)cc1)NC(=O)[C@H]1CCCN1C(=O)[C@H]1CCCN1)C(=O)N[C@H](Cc1c[nH]c2ccccc12)C(=O)N[C@H](CCC(=O)O)C(=O)O [p10] (H-[dP][dP][dY][dA][dW][dE]-OH)
- visual autopsy and histological analysis of the muscles vs DMSO controls (FVB wild strain mice; 0.5, 1, 10, 100 μg i.m., 4 weeks after injection): did not reveal significant differences
- urea and GPT in the blood vs controls (FVB wild strain mice; 10-μg and 100-μg doses i.m.): even higher values of urea and GPT
- time of death after the injection (FVB wild strain mice; 100-μg dose): approximately 11 days
- mice that died (FVB wild strain mice; 100-μg dose, 6 mice per dose): two
- CPK in blood, times greater than the control with DMSO (FVB wild strain mice; [4]): 15 times
- CPK in blood, times greater than the upper limit of the standard values (FVB wild strain mice; [4]): 28 times
- urea, creatinine, CPK and GGT in the blood (FVB wild strain mice; [4]): extremely high values

Molecule: CN1C(=Cc2cc[n+](C)c3ccccc23)Sc2ccccc21 [thiazole orange]
- binding of MBNL1 to the CUG repeats [1]: inhibited the binding of MBNL1

- significant binding to FAM-(CUG)23 RNA (FAM-(CUG)23 RNA): None
Molecule: apyawe
- activity on lethality phenotype (number of females), alanine scanning [2]: loss of activity

Molecule: p4: defined hexapeptide obtained following deconvolution of the D-amino acid combinatorial library ([dC][dP][dY][dT][dW][dE])
- Treated born/Control born ([3]; 62 μM): —

Molecule: p5: defined hexapeptide obtained following deconvolution of the D-amino acid combinatorial library ([dC][dQ][dY][dA][dQ][dE])
- destructuration of CUG23 probe, comparative 2-aminopurine assay (2-AP-(CUG)23 RNA): significant levels of specificity and efficacy
- Treated born/Control born ([3]; 25 μM): 2.0

Molecule: p6: defined hexapeptide obtained following deconvolution of the D-amino acid combinatorial library ([dC][dQ][dY][dA][dW][dE])
- Treated born/Control born ([3]; 25 μM): —

Molecule: p8: defined hexapeptide obtained following deconvolution of the D-amino acid combinatorial library ([dC][dQ][dY][dT][dW][dE])
- Treated born/Control born ([3]; 57 μM): 0.9

Molecule: p14: defined hexapeptide obtained following deconvolution of the D-amino acid combinatorial library ([dP][dQ][dY][dA][dW][dE])
- Treated born/Control born ([3]; 40 μM): 1.8

Molecule: p15: defined hexapeptide obtained following deconvolution of the D-amino acid combinatorial library ([dP][dQ][dY][dT][dQ][dE])
- destructuration of CUG23 probe, comparative 2-aminopurine assay (2-AP-(CUG)23 RNA): significant levels of specificity and efficacy
- Treated born/Control born ([3]; 40 μM): 0.5

Molecule: p16: defined hexapeptide obtained following deconvolution of the D-amino acid combinatorial library ([dP][dQ][dY][dT][dW][dE])
- Treated born/Control born ([3]; 38.5 μM): 0.4

- significant binding to FAM-(CUG)23 RNA (FAM-(CUG)23 RNA): None
Molecule: payawe
- increase in the fluorescence emission of 2-AP-(CUG)23 (2-AP-(CUG)23 RNA; peptide 100 μM, RNA 1 μM (1:100)): None of these peptides caused changes
- activity on lethality phenotype (number of females), alanine scanning [2]: loss of activity
- change of circular dichroism spectrum of CUG60 (CUG60 RNA): did not occur
- change of circular dichroism spectrum of CUG60 (CUG60 RNA; listed as p29.4): did not change the RNA spectrum

- significant binding to FAM-(CUG)23 RNA (FAM-(CUG)23 RNA): None
Molecule: ppaawe
- activity on lethality phenotype (number of females), alanine scanning [2]: loss of activity

- significant binding to FAM-(CUG)23 RNA (FAM-(CUG)23 RNA): None
Molecule: ppyaae
- activity on lethality phenotype (number of females), alanine scanning [2]: loss of activity
